Reference: patent US10030016B2 (Sunesis Pharmaceuticals, Inc., priority 2009, dated 2018)
Counter-ions that a name gives are not always drawn. Like-named read-outs stand apart in the source and are kept apart here.

Experiments:
[1] = tested on: phospho-akt (Thr308) in PC-3 cells; experiment: Inhibition of phospho-akt (Thr308) in PC-3 cells, MSD phospho-akt 308 ELISA kit; type: cell-based; conditions: Homo sapiens, inhibition of P308 Akt in PC-3 cells, 2 hours, no serum, MSD, read-out: EC50
Summary of the method: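 Phospho-Akt (Thr308) levels were measured by MSD ELISA after PC-3 cells received compound for 2 hours in serum-free medium. Controls: DMSO (high), 5 μM wortmannin (low).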

[2] = target: PDK1 (Homo sapiens (Human), UniProt O15530); experiment: PDK1 kinase assay (coupled PDK1/AKT/FAM-crosstide assay, IMAP fluorescence polarization); type: biochemical; conditions: inhibition of phospo-PDK1 in vitro
PDK1, sequence (O15530 51-359): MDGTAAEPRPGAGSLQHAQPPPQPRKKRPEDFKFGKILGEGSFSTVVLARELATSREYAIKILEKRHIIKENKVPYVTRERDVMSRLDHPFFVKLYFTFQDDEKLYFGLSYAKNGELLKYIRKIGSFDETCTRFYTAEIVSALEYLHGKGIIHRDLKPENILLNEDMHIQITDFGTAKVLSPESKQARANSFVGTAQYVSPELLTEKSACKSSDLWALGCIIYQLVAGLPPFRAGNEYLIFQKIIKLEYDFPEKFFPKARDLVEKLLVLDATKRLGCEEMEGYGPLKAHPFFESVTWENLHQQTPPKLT
Summary of the method: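 GST-tagged PDK1 (aa 51-359, 0.75 nM) was coupled to unphosphorylated GST-AKT2 140-467-PIFtide (10 nM) and 100 nM FAM-crosstide at 40 μM ATP, in Tris pH 7.2 buffer, for 30 min at 25 °C. Crosstide phosphorylation was read by IMAP fluorescence polarization (ΔmP) and fitted with a 4-parameter curve.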

| EC50 ([1]; PC-3, 2 h) [µM] | IC50 [2] [µM] | EC50 [1] [µM] | Compound |
| --- | --- | --- | --- |
| > 10 | 0.1 to 1 |  | Nc1ncnc2ccc(-c3ccc(CNc4ncccc4C(=O)NCc4ccc(Cl)cc4)s3)cc12 [Example 3.22, 2-({[5-(4-aminoquinazolin-6-yl)thiophen-2-yl]methyl}amino)-N-(4-chlorobenzyl)pyridine-3-carboxamide (TFA salt)] |
|  | < 0.1 | < 1 | Nc1ncnc2ccc(-c3ccc(CNc4ncccc4C(=O)NCc4cc(F)c(F)c(F)c4)s3)cc12 [Example 3.23, 2-({[5-(4-aminoquinazolin-6-yl)thiophen-2-yl]methyl}amino)-N-(3,4,5-trifluorobenzyl)pyridine-3-carboxamide (TFA salt)] |
|  | 0.1 to 1 | 1 to 10 | Nc1ncnc2ccc(-c3ccc(CNc4ncccc4C(=O)Nc4ccc(F)c(F)c4)s3)cc12 [Example 3.24, 2-({[5-(4-aminoquinazolin-6-yl)thiophen-2-yl]methyl}amino)-N-(3,4-difluorophenyl)pyridine-3-carboxamide (TFA salt)] |
|  | 1 to 5 | > 10 | Nc1ncnc2ccc(-c3ccc(CNc4ncccc4C(=O)NCc4ccccn4)s3)cc12 [Example 3.25, 2-({[5-(4-aminoquinazolin-6-yl)thiophen-2-yl]methyl}amino)-N-(pyridin-2-ylmethyl)pyridine-3-carboxamide (TFA salt)] |
|  | > 5 | > 10 | Nc1ncnc2ccc(-c3ccc(CNc4ncccc4C(=O)Nc4ccc(C(F)(F)F)cc4)s3)cc12 [Example 3.26, 2-({[5-(4-aminoquinazolin-6-yl)thiophen-2-yl]methyl}amino)-N-[4-(trifluoromethyl)phenyl] pyridine-3-carboxamide (TFA salt)] |
| > 10 | 0.1 to 1 |  | Nc1ncnc2ccc(-c3ccc(CNc4ncccc4C(=O)NCc4cccc(Cl)c4)s3)cc12 [Example 3.27, 2-({[5-(4-aminoquinazolin-6-yl)thiophen-2-yl]methyl}amino)-N-(3-chlorobenzyl) pyridine-3-carboxamide (TFA salt)] |
| > 10 | 1 to 5 |  | Nc1ncnc2ccc(-c3ccc(CNc4ncccc4C(=O)NCc4ccc(C(F)(F)F)o4)s3)cc12 [Example 3.28, 2-({[5-(4-aminoquinazolin-6-yl)thiophen-2-yl]methyl}amino)-N-{[5-(trifluoromethyl)furan-2-yl]methyl}pyridine-3-carboxamide (bis TFA salt)] |
|  | 0.1 to 1 | 1 to 10 | Nc1ncnc2ccc(-c3ccc(CNc4ncccc4C(=O)NCc4ccc(Cl)c(Cl)c4)s3)cc12 [Example 3.29, 2-({[5-(4-aminoquinazolin-6-yl)thiophen-2-yl]methyl}amino)-N-(3,4-dichlorobenzyl) pyridine-3-carboxamide (TFA salt)] |
|  | > 5 | > 10 | Nc1ncnc2ccc(-c3ccc(CNc4ncccc4C(=O)NC4CCCCCC4)s3)cc12 [Example 3.30, 2-({[5-(4-aminoquinazolin-6-yl)thiophen-2-yl]methyl}amino)-N-cycloheptylpyridine-3-carboxamide (TFA salt)] |
|  | > 5 | > 10 | Nc1ncnc2ccc(-c3ccc(CNc4ncccc4C(=O)Nc4ccccc4Cl)s3)cc12 [Example 3.31, 2-({[5-(4-aminoquinazolin-6-yl)thiophen-2-yl]methyl}amino)-N-(2-chlorophenyl)pyridine-3-carboxamide (TFA salt)] |
|  | > 5 | > 10 | Nc1ncnc2ccc(-c3ccc(CNc4ncccc4C(=O)Nc4cccc5cccnc45)s3)cc12 [Example 3.32, 2-({[5-(4-aminoquinazolin-6-yl)thiophen-2-yl]methyl}amino)-N-(quinolin-8-yl)pyridine-3-carboxamide (TFA salt)] |
| > 10 | 0.1 to 1 |  | N#Cc1ccc(NC(=O)c2cccnc2NCc2ccc(-c3ccc4ncnc(N)c4c3)s2)cc1 [Example 3.33, 2-({[5-(4-aminoquinazolin-6-yl)thiophen-2-yl]methyl}amino)-N-(4-cyanophenyl)pyridine-3-carboxamide (TFA salt)] |
|  | > 5 | 1 to 10 | Nc1ncnc2ccc(-c3ccc(CNc4ncccc4C(=O)N4CCc5ccccc5C4)s3)cc12 [Example 3.34, 2-({[5-(4-aminoquinazolin-6-yl)thiophen-2-yl]methyl}amino)-pyridin-3-yl](3,4-dihydroiso-quinolin-2(1H)-yl)methanone (TFA salt)] |
|  | > 5 | 1 to 10 | Nc1ncnc2ccc(-c3ccc(CNc4ncccc4C(=O)NCCN4CCCC4)s3)cc12 [Example 3.36, 2-({[5-(4-aminoquinazolin-6-yl)thiophen-2-yl]methyl}amino)-N-[2-(pyrrolidin-1-yl)ethyl] pyridine-3-carboxamide (TFA salt)] |
|  | 0.1 to 1 | 1 to 10 | Nc1ncnc2ccc(-c3ccc(CNc4ncccc4C(=O)NCc4cccnc4)s3)cc12 [Example 3.37, 2-({[5-(4-aminoquinazolin-6-yl)thiophen-2-yl]methyl}amino)-N-(pyridin-3-ylmethyl) pyridine-3-carboxamide (TFA salt)] |
|  | 1 to 5 | > 10 | Nc1ncnc2ccc(-c3ccc(CNc4ncccc4C(=O)NCc4ccncc4)s3)cc12 [Example 3.38, 2-({[5-(4-aminoquinazolin-6-yl)thiophen-2-yl]methyl}amino)-N-(pyridin-4-ylmethyl) pyridine-3-carboxamide (TFA salt)] |
|  | < 0.1 | < 1 | Nc1ncnc2ccc(-c3ccc(CNc4ncccc4C(=O)NCc4cc(F)cc(F)c4)s3)cc12 [Example 3.39, 2-({[5-(4-aminoquinazolin-6-yl)thiophen-2-yl]methyl}amino)-N-(3,5-difluorobenzyl) pyridine-3-carboxamide (TFA salt)] |
|  | 0.1 to 1 | 1 to 10 | Nc1ncnc2ccc(-c3ccc(CNc4ncccc4C(=O)Nc4cc(F)c(F)c(F)c4)s3)cc12 [Example 3.40, 2-({[5-(4-aminoquinazolin-6-yl)thiophen-2-yl]methyl}amino)-N-(3,4,5-trifluorophenyl) pyridine-3-carboxamide (TFA salt)] |
| < 1 | < 0.1 |  | C[C@H](NC(=O)c1cccnc1NCc1ccc(-c2ccc3ncnc(N)c3c2)s1)c1ccc(F)c(F)c1 [Example 3.41, (S)-2-(((5-(4-aminoquinazolin-6-yl)thiophen-2-yl)methyl)amino)-N-(1-(3,4-difluorophenyl)ethyl) nicotinamide (TFA salt)] |
|  | 0.1 to 1 | > 10 | CC[C@H](NC(=O)c1cccnc1NCc1ccc(-c2ccc3ncnc(N)c3c2)s1)c1cccc(F)c1 [Example 3.42, (S)-2-((5-(4-aminoquinazolin-6-yl)thiophen-2-yl)methylamino)-N-(1-(3-fluorophenyl)propyl) nicotinamide (TFA salt)] |
|  | 0.1 to 1 | 1 to 10 | CC[C@H](NC(=O)c1cccnc1NCc1ccc(-c2ccc3ncnc(N)c3c2)s1)c1ccc(F)cc1 [Example 3.43, (S)-2-((5-(4-aminoquinazolin-6-yl)thiophen-2-yl)methylamino)-N-(1-(4-fluorophenyl)propyl) nicotinamide (TFA salt)] |
|  | 0.1 to 1 | 1 to 10 | CC(C)[C@H](NC(=O)c1cccnc1NCc1ccc(-c2ccc3ncnc(N)c3c2)s1)c1cccc(F)c1 [Example 3.44, (S)-2-((5-(4-aminoquinazolin-6-yl)thiophen-2-yl)methylamino)-N-(1-(3-fluorophenyl)-2-methylpropyl)nicotinamide (TFA salt)] |
|  | 0.1 to 1 | 1 to 10 | CC(C)[C@H](NC(=O)c1cccnc1NCc1ccc(-c2ccc3ncnc(N)c3c2)s1)c1ccc(F)cc1 [Example 3.45, (S)-2-((5-(4-aminoquinazolin-6-yl)thiophen-2-yl)methylamino)-N-(1-(4-fluorophenyl)-2-methylpropyl)nicotinamide (TFA salt)] |
|  | 0.1 to 1 | 1 to 10 | Nc1ncnc2ccc(-c3ccc(CNc4ncccc4C(=O)Nc4cccc(F)c4)s3)cc12 [Example 3.46, 2-({[5-(4-aminoquinazolin-6-yl)thiophen-2-yl]methyl}amino)-N-(3-fluorophenyl)pyridine-3-carboxamide (TFA salt)] |
|  | 0.1 to 1 | < 1 | Nc1ncnc2ccc(-c3ccc(CNc4ncccc4C(=O)Nc4ccc(F)cc4)s3)cc12 [Example 3.47, 2-({[5-(4-aminoquinazolin-6-yl)thiophen-2-yl]methyl}amino)-N-(4-fluorophenyl)pyridine-3-carboxamide (TFA salt)] |
|  | 0.1 to 1 | > 10 | Nc1ncnc2ccc(-c3ccc(CNc4ncccc4C(=O)Nc4ccc(Cl)cc4)s3)cc12 [Example 3.48, 2-({[5-(4-aminoquinazolin-6-yl)thiophen-2-yl]methyl}amino)-N-(4-chlorophenyl)pyridine-3-carboxamide (TFA salt)] |
|  | 0.1 to 1 | 1 to 10 | Nc1ncnc2ccc(-c3ccc(CNc4ncccc4C(=O)Nc4ccc(F)c(Cl)c4)s3)cc12 [Example 3.49, 2-({[5-(4-aminoquinazolin-6-yl)thiophen-2-yl]methyl}amino)-N-(3-chloro-4-fluorophenyl) pyridine-3-carboxamide (TFA salt)] |
|  | 1 to 5 | 1 to 10 | Nc1ncnc2ccc(-c3ccc(CNc4ncccc4C(=O)Nc4ccc(F)c(C(F)(F)F)c4)s3)cc12 [Example 3.51, 2-({[5-(4-aminoquinazolin-6-yl)thiophen-2-yl]methyl}amino)-N-[4-fluoro-3-(trifluoromethyl)phenyl]pyridine-3-carboxamide (TFA salt)] |
